Reference: patent publication US4442044A, “Process for preparing monoesters and diesters of N-alkyl substituted amino methyl phosphonic acid” (priority 1983, dated 1984)

What was measured:
Experiment in all cases: post-emergent herbicidal activity, greenhouse
Assay type in all cases: in vivo
Details in all cases: Table I
[1] = system: Velvetleaf
From the text: (§1) A good grade of top soil is placed in aluminum pans having holes in the bottom and compacted to a depth of 0.95 to 1.27 cm. from the top of the pan. A predetermined number of seeds of each of several dicotyledonous and monocotyledonous annual plant species and/or vegetative propagules for the perennial plant species were placed on the soil and pressed into the soil surface. The seeds and/or vegetative propagules are covered with soil and leveled. The pans are then placed on a sand bench in the greenhouse and watered from below as needed. After the plants reach the desired age (two to three weeks), each pan except for the control pans is removed individually to a spraying chamber and sprayed by means of an atomizer operating at a positive air pressure of approximately 1.46 kg/cm^2 absolute. The atomizer contains 6 ml. of a solution or suspension of the chemical. In that 6 ml., is an amount of a cyclohexanone emulsifying agent mixture to give a spray solution or suspension which contains about 0.4% by weight of the emulsifier. The spray solution or suspension contains a sufficient amount of the candidate chemical in order to give application rates corresponding to those set forth in the tables. The spray solution is prepared by taking an aliquot of a 1.0% by weight stock solution or suspension of the candidate chemical in an organic solvent such as acetone or tetrahydrofuran or in water. The emulsifying agent employed is a mixture comprising 35 weight percent butylamine dodecylbenzene sulfonate and 65 weight percent of a tall oil ethylene oxide condensate having about 11 moles of ethylene oxide per mole of tall oil. The pans are returned to the greenhouse and watered as before and the injury to the plants as compared to the control is observed at approximately two and four weeks as indicated in the tables under WAT and the results recorded. In some instances, the two-week observations are omitted.
(§2) The post-emergent herbicidal activity index used in Tables I and II is as follows: […]

[2] = system: Lambsquarters
From the text: as §1, §2

[3] = system: Downy Brome
From the text: as §1, §2

[4] = system: Smartweed
From the text: as §1, §2

[5] = system: Johnsongrass
From the text: as §1, §2

[6] = system: Barnyardgrass
From the text: as §1, §2

[7] = system: Cocklebur
From the text: as §1, §2

[8] = system: Canada Thistle
From the text: as §1, §2

[9] = system: Yellow Nutsedge
From the text: as §1, §2

[10] = system: Quackgrass
From the text: as §1, §2

[11] = system: Morningglory
From the text: as §1, §2

CCOC(=O)CNCP(=O)(OCC1CCCCO1)OCC1CCCCO1 (centres unmarked) [Example 23, glycine, N-[[bis(tetrahydro-2H-pyran-2-ylmethoxy)phosphinyl]methyl]-, ethyl ester]
post-emergent herbicidal activity index ([1]; 2 WAT, 5.6 kg/h): 0 (0-24% control)
post-emergent herbicidal activity index ([1]; 4 WAT, 11.2 kg/h): 0 (0-24% control)
post-emergent herbicidal activity index ([2]; 2 WAT, 5.6 kg/h): 0 (0-24% control)
post-emergent herbicidal activity index ([2]; 4 WAT, 11.2 kg/h): 0 (0-24% control)
post-emergent herbicidal activity index ([3]; 2 WAT, 5.6 kg/h): 0 (0-24% control)
post-emergent herbicidal activity index ([3]; 4 WAT, 11.2 kg/h): 0 (0-24% control)
post-emergent herbicidal activity index ([4]; 2 WAT, 5.6 kg/h): 0 (0-24% control)
post-emergent herbicidal activity index ([4]; 4 WAT, 11.2 kg/h): 1 (25-49% control)
post-emergent herbicidal activity index ([5]; 2 WAT, 5.6 kg/h): 0 (0-24% control)
post-emergent herbicidal activity index ([6]; 2 WAT, 5.6 kg/h): 0 (0-24% control)
post-emergent herbicidal activity index ([6]; 4 WAT, 11.2 kg/h): 1 (25-49% control)
post-emergent herbicidal activity index ([7]; 2 WAT, 5.6 kg/h): 0 (0-24% control)
post-emergent herbicidal activity index ([7]; 4 WAT, 11.2 kg/h): 0 (0-24% control)
post-emergent herbicidal activity index ([8]; 2 WAT, 5.6 kg/h): 0 (0-24% control)
post-emergent herbicidal activity index ([8]; 4 WAT, 11.2 kg/h): 0 (0-24% control)
post-emergent herbicidal activity index ([9]; 2 WAT, 5.6 kg/h): 0 (0-24% control)
post-emergent herbicidal activity index ([9]; 4 WAT, 11.2 kg/h): 0 (0-24% control)
post-emergent herbicidal activity index ([10]; 2 WAT, 5.6 kg/h): 0 (0-24% control)
post-emergent herbicidal activity index ([10]; 4 WAT, 11.2 kg/h): 0 (0-24% control)
post-emergent herbicidal activity index ([11]; 2 WAT, 5.6 kg/h): 0 (0-24% control)
post-emergent herbicidal activity index ([11]; 4 WAT, 11.2 kg/h): 1 (25-49% control)

CCOC(=O)CNCP(=O)(OC(C)C(=O)OCC)OC(C)C(=O)OCC (centres unmarked) [Example 16, propanoic acid, 2,2'-[[[[(2-ethoxy-2-oxoethyl)amino]methyl]phosphinylidene]bis(oxy)]-bis-,diethyl ester]
post-emergent herbicidal activity index ([1]; 4 WAT, 5.6 kg/h): 0 (0-24% control)
post-emergent herbicidal activity index ([1]; 4 WAT, 11.2 kg/h): 0 (0-24% control)
post-emergent herbicidal activity index ([2]; 4 WAT, 5.6 kg/h): 0 (0-24% control)
post-emergent herbicidal activity index ([2]; 4 WAT, 11.2 kg/h): 0 (0-24% control)
post-emergent herbicidal activity index ([3]; 4 WAT, 5.6 kg/h): 0 (0-24% control)
post-emergent herbicidal activity index ([3]; 4 WAT, 11.2 kg/h): 1 (25-49% control)
post-emergent herbicidal activity index ([4]; 4 WAT, 5.6 kg/h): 0 (0-24% control)
post-emergent herbicidal activity index ([4]; 4 WAT, 11.2 kg/h): 0 (0-24% control)
post-emergent herbicidal activity index ([5]; 4 WAT, 5.6 kg/h): 0 (0-24% control)
post-emergent herbicidal activity index ([5]; 4 WAT, 11.2 kg/h): 0 (0-24% control)
post-emergent herbicidal activity index ([6]; 4 WAT, 5.6 kg/h): 1 (25-49% control)
post-emergent herbicidal activity index ([6]; 4 WAT, 11.2 kg/h): 1 (25-49% control)
post-emergent herbicidal activity index ([7]; 4 WAT, 5.6 kg/h): 0 (0-24% control)
post-emergent herbicidal activity index ([7]; 4 WAT, 11.2 kg/h): 1 (25-49% control)
post-emergent herbicidal activity index ([8]; 4 WAT, 5.6 kg/h): 0 (0-24% control)
post-emergent herbicidal activity index ([8]; 4 WAT, 11.2 kg/h): 0 (0-24% control)
post-emergent herbicidal activity index ([9]; 4 WAT, 5.6 kg/h): 1 (25-49% control)
post-emergent herbicidal activity index ([9]; 4 WAT, 11.2 kg/h): 1 (25-49% control)
post-emergent herbicidal activity index ([10]; 4 WAT, 5.6 kg/h): 0 (0-24% control)
post-emergent herbicidal activity index ([10]; 4 WAT, 11.2 kg/h): 0 (0-24% control)
post-emergent herbicidal activity index ([11]; 4 WAT, 5.6 kg/h): 1 (25-49% control)
post-emergent herbicidal activity index ([11]; 4 WAT, 11.2 kg/h): 1 (25-49% control)

CCOC(=O)CNCP(=O)(O)OC(C)CC(=O)OCC (centres unmarked) [Example 25]
post-emergent herbicidal activity index ([1]; 4 WAT, 5.6 kg/h): 0 (0-24% control)
post-emergent herbicidal activity index ([1]; 4 WAT, 11.2 kg/h): 1 (25-49% control)
post-emergent herbicidal activity index ([2]; 4 WAT, 5.6 kg/h): 0 (0-24% control)
post-emergent herbicidal activity index ([2]; 4 WAT, 11.2 kg/h): 0 (0-24% control)
post-emergent herbicidal activity index ([3]; 4 WAT, 5.6 kg/h): 0 (0-24% control)
post-emergent herbicidal activity index ([3]; 4 WAT, 11.2 kg/h): 0 (0-24% control)
post-emergent herbicidal activity index ([4]; 4 WAT, 5.6 kg/h): 0 (0-24% control)
post-emergent herbicidal activity index ([4]; 4 WAT, 11.2 kg/h): 0 (0-24% control)
post-emergent herbicidal activity index ([5]; 4 WAT, 5.6 kg/h): 1 (25-49% control)
post-emergent herbicidal activity index ([5]; 4 WAT, 11.2 kg/h): 2 (50-74% control)
post-emergent herbicidal activity index ([6]; 4 WAT, 5.6 kg/h): 1 (25-49% control)
post-emergent herbicidal activity index ([6]; 4 WAT, 11.2 kg/h): 2 (50-74% control)
post-emergent herbicidal activity index ([7]; 4 WAT, 5.6 kg/h): 0 (0-24% control)
post-emergent herbicidal activity index ([7]; 4 WAT, 11.2 kg/h): 2 (50-74% control)
post-emergent herbicidal activity index ([8]; 4 WAT, 5.6 kg/h): 0 (0-24% control)
post-emergent herbicidal activity index ([8]; 4 WAT, 11.2 kg/h): 1 (25-49% control)
post-emergent herbicidal activity index ([9]; 4 WAT, 5.6 kg/h): 0 (0-24% control)
post-emergent herbicidal activity index ([9]; 4 WAT, 11.2 kg/h): 2 (50-74% control)
post-emergent herbicidal activity index ([10]; 4 WAT, 5.6 kg/h): 0 (0-24% control)
post-emergent herbicidal activity index ([10]; 4 WAT, 11.2 kg/h): 1 (25-49% control)
post-emergent herbicidal activity index ([11]; 4 WAT, 5.6 kg/h): 1 (25-49% control)
post-emergent herbicidal activity index ([11]; 4 WAT, 11.2 kg/h): 2 (50-74% control)
